Reference: patent publication US20140373438A1, “Method for Thinning Fruit” (BAYER CROPSCIENCE AG, priority 2001, published 2014)
Where two headings read alike, the source gives them in different places.

Columns and labels:
[1] = system: young plant organs (leaves and fruits); details: applied, preferably sprayed, together with the thinning formulations
plants = details: use for fruit thinning, J. Amer. Soc. Hort. Sci. 115(1): 14-19 (1990); cited from earlier work
apple varieties = test: Plant tolerance by visual scoring in thinning experiments; type: in vivo; details: application rates 500 mg/l and 700 mg/l
Description: According to visual scoring, formulations comprising […] metamitron show no or only minimal damage when used in thinning experiments on a wide range of apple varieties, while formulations comprising 700 mg/l metamitron cause minimal to clearly discernable damage under identical conditions.

[2] = system: "Golden Delicious" apple variety; details: 7 days post-flowering, standard 98 g, cited from earlier work

Q: Which plant intolerance symptoms [1] does the source give for `O=C[O-].O=C[O-].[Ca+2]` [calcium formate] here?
A: Its plant intolerance symptoms is “plant intolerance symptoms were not observed”.

Q: Which plant tolerance (plants) does the source give for `CSc1nnc(C(C)(C)C)c(=O)n1N` [metribuzin] here?
A: The plant tolerance was “unsatisfactory”.

Q: With `Cc1nnc(-c2ccccc2)c(=O)n1N` [metamitron] as the compound, how does the “plant damage at the application rates of Guzewski” value (apple varieties) read?
A: The value was “plant damage (foliar necroses) can be observed”.

Q: What about the fruit weight ([2]; application rate 500 mg/l) of the same compound?
A: The fruit weight was 150 g.

Q: What about the fruit weight ([2]; application rate 700 mg/l) of the same compound?
A: The fruit weight was 180 g.
